This is an account of results in US6548540B2, “Method of treating cancer using dithiocarbamate derivatives” (Charlotte-Mecklenburg Hospital Authority, priority 1998, dated 2003).

One test deals with p21WAF1/CIP1. Nature of the test: Immunoblot for p21WAF1/CIP1. The class given is cell-based, human. To be noted: cell lines studied; data not shown. As to the method: Cells were lysed and proteins were isolated and quantitated by immunoassay as previously detailed using 2 μg/ml of primary rabbit polyclonal antibodies against human bcl-2, p53, p21^WAF1/CiP1, cyclin A and cyclin B1, and peroxidase-labeled donkey polyclonal anti-rabbit IgG. Cells were placed on ice, washed twice with cold DPBS, scraped into 0.5 ml boiling buffer (10% [vol/vol] glycerol and 2% [wt/vol] sodium dodecyl sulfate [SDS] in 83 mM Tris, pH 6.8) and sheared by four passages through a pipette. Aliquots were removed for protein determination, using the BCA protein assay (Pierce). After 10% β-mercaptoethanol and 0.05% bromophenol blue were added, lysates were boiled for 5 min and stored at −80° C. until immunoblotting was performed. Proteins in defrosted samples were separated by SDS-polyacrylamide gel electrophoresis on 12% polyacrylamide gels (15 μg protein/lane) and electrotransferred to 0.45 μm Hybond ECL nitrocellulose membranes (Amersham Life Sciences) using the wet transblot method in transfer buffer (0.025 M Tris, 0.192 M glycine, 2.6 mM SDS, and 20%[vol/vol] methanol; pH 8.8) at 100 volts for 1 hour. […] Immunoblots were rinsed again as above and detected via an enhanced chemiluminescence method (ECL Western blotting detection system, Amersham Life Science, Buckinghamshire, England). […]
For orientation: Immunoblotting shows a protein as a band on a membrane.

Test [1] has as its system Breast carcinoma MDA-MB-453. Nature of the test: MTT proliferation assay, breast carcinoma. The class given is cell-based. The note with it: Homo sapiens, read-out: Mean Percent Inhibition of Growth; for inhibition at 0.625 µM: disulfiram 0.625 μM; for inhibition at 1.25 µM: disulfiram 1.25 μM; for inhibition at 2.5 µM: disulfiram 2.5 μM; for inhibition at 5 µM: disulfiram 5.0 μM. As to the method: (§1) Human malignant cell lines were obtained from American Type Tissue Culture Collection (Rockville, Md.). Melanoma cells lines CRL 1585 and 1619 were cultured in RPMI 1640 (GIBCO-BRL, Life Technologies, Grand Island, N.Y.) with 10% FBS and passed with nonenzymatic Cell Dissociation Solution® (Sigma). The prostate adenocarcinoma cell line CRL 1435 (PC-3) was also cultured in RPMI 1640 with 10% FBS but passed with 0.05% trypsin and 0.53 mM EDTA. The squamous lung carcinoma NCI-H520 and the adenosquamous lung carcinoma NCI-H596 cell lines were grown in RPMI 1640 supplemented with 10% FBS, 10 mM HEPES and 1.0 mM sodium pyruvate and passed with trypsin/EDTA. The small cell lung carcinoma NCI-H82 was cultured as a suspension in RPMI 1640 with 10% FBS. All of the above were grown in a 37° C. humidified environment containing 5% CO2/air. The breast carcinoma cell line MDA-MB-453 was grown in a 37° C. humidified environment with free gas exchange with atmospheric air using Leibovitz's L-15 medium with 2 mM L-glutamine and 10% FBS and was passed with trypsin/EDTA.
(§2) The effect of disulfiram (0.15 to 5.0 μM), diethyldithiocarbamate (DDC, 1.0 μM) or PDTC (0.625 to 5.0 μM) on proliferation of malignant cell lines was studied in cultures stimulated with 10% FBS. Cell numbers were quantitated 24-72 hours later. In some experiments disulfiram or PDTC were added immediately after cells were plated. In other experiments, cells were plated and allowed to grow for 24-72 hours before fresh media with disulfiram or PDTC was added, and cell numbers were assayed 24-72 hours later. Synergy was studied between disulfiram and N,N′-bis(2-chloroethyl-N-nitrosourea (carmustine or BCNU, 1.0 to 1,000 μM) or cisplatin (0.1 to 100 μg/ml) added to medium. The effect of metals on disulfiram was studied with 0.2 to 10 μM copper (provided as CuSO4), zinc (as ZnCl2), silver (as silver lactate) or gold (as HAuCl4.3H2O) ions added to growth medium. No pH changes occurred with addition of metal salts to culture medium. To provide a biologically relevant source of copper, in some experiments medium was supplemented with human ceruloplasmin at doses replicating low and high normal adult serum concentrations (250 and 500 μg/ml).
(§3) Proliferation of cultured cells was quantitated using a previously reported calorimetric method based upon metabolic reduction of the soluble yellow tetrazolium dye 3-[4,5-dimethylthiazol]-2yl-2,5-diphenyl tetrazolium bromide (MTT) to its insoluble purple formazan by the action of mitochondrial succinyl dehydrogenase (See, e.g., S. J. Hirst, et al., “Quantifying proliferation of cultured human and rabbit airway smooth muscle in response to serum and platelet derived growth factor,” Am. J. Respir. Cell Mol. Biol. 7:574-581 (1992); R. Dashtaki, et al. R., supra; S. S. Brar, et al., “Requirement for reactive oxygen species in serum-induced and platelet-derived growth factor-induced growth of airway smooth muscle,” J. Biol. Chem. 274:20017-20026 (1999)). This assay empirically distinguishes between dead and living cells. For proliferation studies, cells were seeded into 24-well uncoated plastic plates (Costar) at 50,000 cells per well and cultured with respective media and mitogens. After 24-96 hours, medium was removed, cells were washed twice with 1 ml of sterile Dulbecco's modified phosphate buffered saline without Ca^2+ or Mg^2+ (DPBS), the medium was replaced with 1 ml/well fresh medium containing 100 μg/ml MTT, and plates were incubated an additional hour. MTT-containing medium was removed, 0.5 ml dimethylsulfoxide (DMSO) was added to each well, and the absorbance of the solubilized purple formazan dye was measured at 540 nm. A total of 4-6 wells were studied at each treatment condition. Preliminary studies were performed with 50-200 μg/ml MTT incubated for 15 minutes to 3 hours to determine the optimum concentration and incubation time at which the rate of conversion was linear and proportional to the number of cells present. […]

In test [2] the test system is Small cell lung carcinoma NCI-H82. Nature of the test: MTT proliferation assay, small cell lung carcinoma. The class given is cell-based. To be noted: Homo sapiens, treatment initially, after 48 hours, 10% FBS, read-out: Mean Percent Inhibition of Growth. As to the method:
as §1
The effect of disulfiram (0.15 to 5.0 μM), diethyldithiocarbamate (DDC, 1.0 μM) or PDTC (0.625 to 5.0 μM) on proliferation of malignant cell lines was studied in cultures stimulated with 10% FBS. Cell numbers were quantitated 24-72 hours later. In some experiments disulfiram or PDTC were added immediately after cells were plated. In other experiments, cells were plated and allowed to grow for 24-72 hours before fresh media with disulfiram or PDTC was added, and cell numbers were assayed 24-72 hours later. […]
Proliferation of cultured cells was quantitated using a previously reported calorimetric method based upon metabolic reduction of the soluble yellow tetrazolium dye 3-[4,5-dimethylthiazol]-2yl-2,5-diphenyl tetrazolium bromide (MTT) to its insoluble purple formazan by the action of mitochondrial succinyl dehydrogenase (See, e.g., S. J. Hirst, et al., “Quantifying proliferation of cultured human and rabbit airway smooth muscle in response to serum and platelet derived growth factor,” Am. J. Respir. Cell Mol. Biol. 7:574-581 (1992); R. Dashtaki, et al. R., supra; S. S. Brar, et al., “Requirement for reactive oxygen species in serum-induced and platelet-derived growth factor-induced growth of airway smooth muscle,” J. Biol. Chem. 274:20017-20026 (1999)). […] MTT-containing medium was removed, 0.5 ml dimethylsulfoxide (DMSO) was added to each well, and the absorbance of the solubilized purple formazan dye was measured at 540 nm. […]
(In general: Tetrazolium assays rely on reduction of a dye to a coloured formazan, in cell work by metabolically active cells.)

The subject of test [3] is Adenosquamous lung carcinoma NCI-H596. Nature of the test: MTT proliferation assay, adenosquamous lung carcinoma. The class given is cell-based. To be noted: Homo sapiens, read-out: Mean Percent Inhibition of Growth; for inhibition at 0.625 µM: disulfiram 0.625 μM; for inhibition at 1.25 µM: disulfiram 1.25 μM; for inhibition at 2.5 µM: disulfiram 2.5 μM; for inhibition at 5 µM: disulfiram 5.0 μM. As to the method: as §1, §2, §3

The mark [4] stands for this setting: section 'Treatment after 24 hours' (breast grown 48 hours), additional 48 hours.
Setting [5] is: treatment initially, after 48 hours, 10% FBS.
Setting [6] is: treatment after 24 hours of growth, additional 24 hours.

A word on the inhibition: it is the change of the read-out against control, counted positive when it falls.

Each structure is given as a SMILES string. Where two headings read alike, the source gives them in different places.

As to `CCN(CC)C(=S)SSC(=S)N(CC)CC` [Disulfiram, tetraethylthiuram disulfide], the “expression of p21WAF1/CIP1” value in the test with p21WAF1/CIP1 is “no consistent effect”. Besides, the inhibition at 0.625 µM in test [1] (setting [4]) turned out to be 26 ± 5%; in test [1] (setting [5]), 69 ± 4%; in test [2] (disulfiram 0.625 μM), 68 ± 3%; in test [3] (setting [6]), 30 ± 3%; in test [3] (setting [5]) it was 47 ± 4%. Besides, the inhibition at 1.25 µM in test [1] (setting [4]) turned out to be 26 ± 2%; in test [1] (setting [5]), 94 ± 2%; in test [2] (disulfiram 1.25 μM), 76 ± 6%; in test [3] (setting [6]), 30 ± 3%; in test [3] (setting [5]) it was 57 ± 4%. Further, the inhibition at 2.5 µM in test [1] (setting [4]) is 39 ± 2%; in test [1] (setting [5]), 100%; in test [2] (disulfiram 2.5 μM), 76 ± 5%; in test [3] (setting [6]), 29 ± 1%; in test [3] (setting [5]), 50 ± 3%. Moreover, the inhibition at 5 µM in test [1] (setting [4]) turned out to be 46 ± 4%; in test [1] (setting [5]) it was 100%; in test [2] (disulfiram 5.0 μM), 72 ± 3%; in test [3] (setting [6]), 34 ± 3%; in test [3] (setting [5]), 50 ± 4%.
